Assay results from patent US9833497B2, “Human originated EGF domain proteins and use of the same” (CHENGDU SOURCEBIO LIMITED-LIABILITY COMPANY, priority 2013, dated 2017).

Experiments:
Type in all cases: cell-based
[1] = test system: Enterobacter cloacae; experiment: MIC against Gram-negative bacteria: Enterobacter cloacae; conditions: 5×10^5 CFU/mL
Summary of the method: (§1)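 Bacteria grown in LB at 37° C with shaking to McFarland 0.5, pelleted and resuspended in fresh LB, then seeded at 5×10^5 CFU/mL per well. Purified recombinant human EGF domain proteins were two-fold serially diluted in triplicate and plates shaken at 37° C, 175 rpm. MIC is the lowest protein concentration with no bacterial growth.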

[2] = test system: Pseudomonas aeruginosa; experiment: MIC against Gram-negative bacteria: Pseudomonas aeruginosa; conditions: 5×10^5 CFU/mL
Summary of the method: as §1

[3] = test system: Moraxella catarrhalis; experiment: MIC against Gram-negative bacteria: Moraxella catarrhalis; conditions: 5×10^5 CFU/mL
Summary of the method: as §1

[4] = test system: Serratia marcescens; experiment: MIC against Gram-negative bacteria: Serratia marcescens; conditions: 5×10^5 CFU/mL
Summary of the method: as §1

[5] = test system: Proteus mirabilis; experiment: MIC against Gram-negative bacteria: Proteus mirabilis; conditions: 5×10^5 CFU/mL
Summary of the method: as §1

[6] = test system: Klebsiella pneumonia; experiment: MIC against Gram-negative bacteria: Klebsiella pneumonia; conditions: 5×10^5 CFU/mL
Summary of the method: as §1

[7] = test system: E. coli DH5α; experiment: Antibacterial activity: MIC and growth curve against E. coli DH5α in 96-well plate; conditions: minimal inhibitory concentration against E. coli DH5α; 96-well plate, 5×10^5 CFU/mL, 37° C., judged after 8 h
Summary of the method: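 Log-phase DH5α (OD600 about 0.5, 37° C, 185 rpm in LB) was pelleted, resuspended in fresh LB and seeded at 5×10^5 CFU/mL with recombinant protein at 50, 25 and 12.5 μg/mL (two-fold series), in triplicate. Plates were shaken at 175 rpm, 37° C, and OD600 was read every 30 min. MIC was the lowest concentration with no growth.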

[8] = test system: Aeromonas hydrophila; experiment: MIC against Gram-negative bacteria: Aeromonas hydrophila; conditions: 5×10^5 CFU/mL
Summary of the method: as §1

[9] = test system: Proteus vulgaris; experiment: MIC against Gram-negative bacteria: Proteus vulgaris; conditions: 5×10^5 CFU/mL
Summary of the method: as §1

[10] = test system: E. coli BL21; experiment: MIC against Gram-negative bacteria: E. coli BL21; conditions: 5×10^5 CFU/mL
Summary of the method: as §1

[11] = test system: Citrobacter diversus; experiment: MIC against Gram-negative bacteria: Citrobacter diversus; conditions: 5×10^5 CFU/mL
Summary of the method: as §1

[12] = Enterobacter cloacae, 96-well plate, 37° C., 10 h
[13] = Pseudomonas aeruginosa, 96-well plate, 37° C., 10 h
[14] = Moraxella catarrhalis, 96-well plate, 37° C., 10 h
[15] = Serratia marcescens, 96-well plate, 37° C., 10 h
[16] = Proteus mirabilis, 96-well plate, 37° C., 10 h
[17] = Klebsiella pneumonia, 96-well plate, 37° C., 10 h
[18] = Aeromonas hydrophila, 96-well plate, 37° C., 10 h
[19] = Proteus vulgaris, 96-well plate, 37° C., 10 h
[20] = E. coli BL21, 96-well plate, 37° C., 10 h
[21] = Citrobacter diversus, 96-well plate, 37° C., 10 h
[22] = 10 h cultivation at 37° C., two-fold serial dilution

In the case of “PRT78 (KKNVCDSNTCHNGGTCVNQWDAFSCECPLGFGGKSCA; listed as Homo sapiens)”, the “MIC (μg/mL) E. cloacae” value [1, 12] is reported as 50 µg/mL, the “MIC (μg/mL) P. aeruginosa” value [2, 13] is reported as 50 µg/mL and the “MIC (μg/mL) M. catarrhalis” value [3, 14] is reported as 50 µg/mL. For the same substance, the “MIC (μg/mL) S. marcescens” value [4, 15] was 12.5 µg/mL, the “MIC (μg/mL) P. mirabilis” value [5, 16] was 50 µg/mL and the “MIC (μg/mL) K. pneumonia” value [6, 17] was 25 µg/mL. The MIC [7] was 50 µg/mL, the “MIC (μg/mL) A. hydrophila” value [8, 18] was 25 µg/mL and the “MIC (μg/mL) P. vulgaris” value [9, 19] was 50 µg/mL. For the same substance, the “MIC (μg/mL) E. coli BL21” value [10, 20] was 25 µg/mL and the “MIC (μg/mL) C. diversus” value [11, 21] was 50 µg/mL.

With “PRT512 (CACPLISSSNNFSPSCVAEGLDDYRCTACPRGYEGQYCERCAPGYTGSPGNPGGSCQE; listed as Homo sapiens)” the “MIC against E. cloacae” value ([1]; 96-well plate, 37° C., 10 h) was 50 µg/mL, the “MIC against P. aeruginosa” value ([2]; 96-well plate, 37° C., 10 h) was 12.5 µg/mL and the “MIC against M. catarrhalis” value ([3]; 96-well plate, 37° C., 10 h) was 25 µg/mL. For the same substance, the “MIC against S. marcescens” value ([4]; 96-well plate, 37° C., 10 h) was 12.5 µg/mL, the “MIC against P. mirabilis” value ([5]; 96-well plate, 37° C., 10 h) was 50 µg/mL and the “MIC against K. pneumonia” value ([6]; 96-well plate, 37° C., 10 h) was 25 µg/mL. For the same substance, the MIC [7] was 50 µg/mL, the “MIC against A. hydrophila” value ([8]; 96-well plate, 37° C., 10 h) was 25 µg/mL and the “MIC against P. vulgaris” value ([9]; 96-well plate, 37° C., 10 h) was 25 µg/mL. The “MIC against E. coli BL21” value ([10]; 96-well plate, 37° C., 10 h) was 25 µg/mL and the “MIC against C. diversus” value ([11]; 96-well plate, 37° C., 10 h) was 12.5 µg/mL.

With “PRT137 (NPCQGSATCVNTPGERSFLCKCPPGYSGTICE; listed as Homo sapiens)” the “MIC (μg/mL) E. cloacae” value [1, 12] was 25 µg/mL, the “MIC (μg/mL) P. aeruginosa” value [2, 13] was 25 µg/mL and the “MIC (μg/mL) M. catarrhalis” value [3, 14] was 12.5 µg/mL. For the same substance, the “MIC (μg/mL) S. marcescens” value [4, 15] was 50 µg/mL, the “MIC (μg/mL) P. mirabilis” value [5, 16] was 25 µg/mL and the “MIC (μg/mL) K. pneumonia” value [6, 17] was 12.5 µg/mL. For the same substance, the MIC [7] was 25 µg/mL, the “MIC (μg/mL) A. hydrophila” value [8, 18] was 12.5 µg/mL and the “MIC (μg/mL) P. vulgaris” value [9, 19] was 12.5 µg/mL. The “MIC (μg/mL) E. coli BL21” value [10, 20] was 12.5 µg/mL and the “MIC (μg/mL) C. diversus” value [11, 21] was 25 µg/mL.

“PRT1146 (SIDNCAEPELNSVICLNGGICVDGPGHTFDCRCLPGFSGQFCE; listed as Homo sapiens)” was tested, and the “MIC E. cloacae” value [1, 22] was 50 µg/mL, the “MIC P. aeruginosa” value [2, 22] was 12.5 µg/mL and the “MIC M. catarrhalis” value [3, 22] was 50 µg/mL. For the same substance, the “MIC S. marcescens” value [4, 22] was 12.5 µg/mL, the “MIC P. mirabilis” value [5, 22] was 12.5 µg/mL and the “MIC K. pneumonia” value [6, 22] was 25 µg/mL. For the same substance, the MIC [7] was 50 µg/mL, the “MIC A. hydrophila” value [8, 22] was 12.5 µg/mL and the “MIC P. vulgaris” value [9, 22] was 50 µg/mL. The “MIC E. coli BL21” value [10, 22] was 25 µg/mL and the “MIC C. diversus” value [11, 22] was 25 µg/mL.

“PRT1307 (HECPGGAETPCNGHGTCLDGMDRNGTCVCQENFRGSACQ; listed as Homo sapiens)” was tested, and the “MIC against E. cloacae” value [1, 12] was 100 µg/mL, the “MIC against P. aeruginosa” value [2, 13] was 12.5 µg/mL and the “MIC against M. catarrhalis” value [3, 14] was 50 µg/mL. The “MIC against S. marcescens” value [4, 15] was 25 µg/mL, the “MIC against P. mirabilis” value [5, 16] was 25 µg/mL and the “MIC against K. pneumonia” value [6, 17] was 50 µg/mL. The MIC [7] was 12.5 µg/mL, the “MIC against A. hydrophila” value [8, 18] was 50 µg/mL and the “MIC against P. vulgaris” value [9, 19] was 12.5 µg/mL. For the same substance, the “MIC against E. coli BL21” value [10, 20] was 50 µg/mL and the “MIC against C. diversus” value [11, 21] was 12.5 µg/mL.

With “PRT1112 (GAPVCAPSPCLHDGACRDLFDAFACACGPGWEGPRCE; listed as Homo sapiens)” the “MIC E. cloacae” value [1, 22] was 50 µg/mL, the “MIC P. aeruginosa” value [2, 22] was 12.5 µg/mL and the “MIC M. catarrhalis” value [3, 22] was 12.5 µg/mL. The “MIC S. marcescens” value [4, 22] was 25 µg/mL, the “MIC P. mirabilis” value [5, 22] was 25 µg/mL and the “MIC K. pneumonia” value [6, 22] was 25 µg/mL. The MIC [7] was 50 µg/mL, the “MIC A. hydrophila” value [8, 22] was 12.5 µg/mL and the “MIC P. vulgaris” value [9, 22] was 12.5 µg/mL. The “MIC E. coli BL21” value [10, 22] was 25 µg/mL and the “MIC C. diversus” value [11, 22] was 25 µg/mL.

With “PRT595 (CSCHASGVSPMECPPGGGACLCDPVTGACPCLPNVTGLACDRCADGYWNLVPGRGCQS; listed as Homo sapiens)” the “MIC E. cloacae” value ([1]; 96-well plate, 37° C., 10 h) was 12.5 µg/mL, the “MIC P. aeruginosa” value ([2]; 96-well plate, 37° C., 10 h) was 12.5 µg/mL and the “MIC M. catarrhalis” value ([3]; 96-well plate, 37° C., 10 h) was 50 µg/mL. For the same substance, the “MIC S. marcescens” value ([4]; 96-well plate, 37° C., 10 h) was 25 µg/mL, the “MIC P. mirabilis” value ([5]; 96-well plate, 37° C., 10 h) was 12.5 µg/mL and the “MIC K. pneumonia” value ([6]; 96-well plate, 37° C., 10 h) was 50 µg/mL. The MIC [7] was 12.5 µg/mL, the “MIC A. hydrophila” value ([8]; 96-well plate, 37° C., 10 h) was 50 µg/mL and the “MIC P. vulgaris” value ([9]; 96-well plate, 37° C., 10 h) was 50 µg/mL. For the same substance, the “MIC E. coli BL21” value ([10]; 96-well plate, 37° C., 10 h) was 50 µg/mL and the “MIC C. diversus” value ([11]; 96-well plate, 37° C., 10 h) was 12.5 µg/mL.
